# Measured values reported in patent EP2135864A1, “5-(4-methanesulfonyl-phenyl)-thiazole derivatives for the treatment of acute and chronic inflammatory diseases” (FAES FARMA, S.A., priority 2008, dated 2009).
# Tests used:
# Format in all cases: cell-based, human
# TNF-alpha = TNF-alpha production by PBMC of healthy volunteers, ELISA of culture supernatant; settings: 24 hours, median ± standard error, n=10
# Method: In order to quantify the serum cytokines concentration, the extracted blood was stored in tubes both with and without anti-coagulant (collected by antecubital venopunction and arterial catheter, respectively). Blood was allowed to coagulate at room temperature in the laboratory, further separating the serum by centrifugation (600xg during 20 minutes). Supernatant were collected, filtered, divided in aliquotes and stored at -70°C. Concentration assays for different cytokines were performed by using the commercial kits described in Table 2. Table 2.- Commercial ELISA kits used in this study
# Supernatants were unfrozen up to the room temperature and faced against the respective anti-cytokine by fixing them in the plate bottom and incubating them during a variable time. Subsequently, wash-outs were carried out and the substances recommended by the corresponding company were added in order to allow a colorimetric reaction, in a proportional manner to the amount of cytokine present in the supernatant. The results were assessed with the enzymo-immunoanalysis reader Multititer Plus (Tiertek Multiscan Plus, Flow Laboratories).
# The analysis of the standard curves and subsequent interpolation was performed with the software Delta Soft II version 4.1 (Biometallics, Inc.) in an Apple Macintosh computer. Cytokine concentrations were converted to molar in order to calculate the molecular ratios of each case and the number of soluble molecules.
# Effects of compound 12 on TNF-alpha production by PBMC of healthy volunteers in the presence or in the absence of LPS were first investigated. PBMC (5 x 10^4 cells/well, 200 µl) from 10 healthy volunteers were cultured in parallel in duplicate in tissue culture plates, 96 well, flat-bottom with low evaporation lid (353072 Falcon, Becton Dickinson labware, Franklin Lakes, USA, 07417-1886 NJ) in complete medium (RPMI-1640 with glutamine Cat BE-12-70F, Cambrex Biosciences, B4880 Verviers, Belgium), supplemented with phoetal bovine serum (origin USA, Gibco ref. 26140-079) and a solvent concentration of 10^-6 M alone or supplemented with 10^-6 M or 10^-7 M of compound 12, in the presence and in the absence of LPS (10microg/ml; E. coli LPS 0111:B4 strain InvivoGene, San Diego CA92121 USA) during 24 hours. Supernatant of cultures were frozen at -20°C and the concentration of TNF-alpha was quantified with ELISA species-specific (enzyme-linked immunosorbent assay for quantitative detection of tumour necrosis factor- alpha: human TNF-alpha ELISA BM S223/4TEUCE, Bender Med System Inc, Burlinghane CA 94010).
# CD62L = experiment: Shedding of CD62L in monocytes of PBMC, flow cytometry; settings: monocytes of PBMC from healthy volunteers, mean ± standard error, n=10, vehicle 65.34±8.06
# [1] = tested on: PBMC from healthy volunteers; experiment: Proliferative response of PBMC, 3[H]-Thymidine incorporation; settings: n=8; 4 days culture; absence or presence of PHA 10 µg/ml, PHA 2 µg/ml plus IL-2 (25 IU/ml), or anti-CD3 (12.5 ng/ml) + anti-CD28 (1:320.000)
# Method: Faced against a mitogen stimulation, lymphocytes suffer a blastogenesis and cellular differentiation process. The method used to quantify the cellular proliferation was the assay of the incorporation of ^3[H]-Thymidine to the DNA de novo synthesized, and the emission of betha-radiation from the cellular cultures dried extracts (to which the tritiated base was added) was detected before its ending and harvesting. In the different experiments performed to study the proliferation, the purified cellular preparations were incubated in 96 microwells plain bottom plates at concentrations of 5 x 10^4 cells/well (200 µl final volume), in the presence of different concentrations of various mitogens with triplicate repetitions and along 4 days of culture.
# The response to a specific stimuli depended on the density and cell type studied, as well as of the culture time and of the mitogenic agent concentration. […]
# PBMC was cultured during 4 days (50.000 cells per well) at 37°C and 5 % CO2 atmosphere (Cell incubator HERA Cell 150, Thermoscientific, Thermoelectron, 63505 Lagenselbold, GE) in complete culture medium. […] The DNA-incorporated radioactive was quantified by using a betha particles counter Wallac Oy.
structure (smiles),measurement,setting,value
"Cc1nc(OC2CCCC2)c(-c2ccc(S(C)(=O)=O)cc2)s1 [compound 12, 4-cyclopentyloxy-5-(4-methylsulfonyl-phenyl)-2-methylthiazole]",TNF-alpha production in PMBC from healthy volunteers,"TNF-alpha; LPS (10µg/ml), 10^-6 M, vehicle 3084.63±450.00, p 0.005",1064.91±52.82 (0.005) pg/mL
same,TNF-alpha production in PMBC from healthy volunteers,"TNF-alpha; LPS (10µg/ml), 10^-7 M, vehicle 3084.63±450.00, p 0.028",1938.00±487.74 (0.028) pg/mL
same,TNF-alpha production in PMBC from healthy volunteers,"TNF-alpha; medium (no stimulus), 10^-6 M, vehicle 1118.00±800.00, p 0.009",551.60±324.17 (0.009) pg/mL
same,TNF-alpha production in PMBC from healthy volunteers,"TNF-alpha; medium (no stimulus), 10^-7 M, vehicle 1118.00±800.00, p 0.114",1121.00±100.48 (0.114) pg/mL
same,Mean fluorescence intensity of surface CD62L expression in monocytes (MFI),"CD62L; 10^-6 M, p 0.721",63.90±8.52 (0.721)
same,Mean fluorescence intensity of surface CD62L expression in monocytes (MFI),"CD62L; 10^-7 M, p 0.878",72.30±10.21 (0.878)
same,proliferative response of the PBMC from healthy volunteers,[1],did not significantly modify
